One data set concerns the target T1, Human KCNQ2/3 channel (Homo sapiens, UniProt O43525+O43526).
T1 construct: expressed in transfected cells; host or cells: CHO-DHFR- cells
The experiment in a line: Opening action with respect to KCNQ2/3 channel by depolarization stimulation (thallium influx, FLIPR). Type of data set: cell-based. To be noted: concentration giving 50% of the maximum reaction of retigabine (10 μM); human KCNQ2/3 expressing CHO-DHFR- cells; read-out: KCNQ2/3 ECrtg50. As to the method:
Human KCNQ2/3 expression cells (CHO-DHFR− cells) were seeded in each well of a 384-well plate (collagen-coated, black, clear bottom) at 0.5×10^4 cells/50 μL per well and cultured using a MEM ALPHA medium (containing 10 vol % inactivated (56° C., 30 min) fetal bovine serum, 100 IU/mL penicillin, 100 μg/mL streptomycin, and 2 mM L-glutamine) at 37° C. in 5% CO2 for 18 to 24 hours. After the medium in the plate was removed, incubation (room temperature, 60 minutes, shading) was performed in a loading buffer (prepared by the method described in the manual of FluxOR Thallium Detection Kit (Invitrogen, F10016, F10017)). A KCNQ2/3 channel opening action (thallium influx into cells) by depolarization stimulation (5 mM potassium and 0.5 mM thallium) was measured by FLIPR TETRA (Molecular Devices). The compound of the present invention was treated 5 minutes before the depolarization stimulation, and the reaction induced by the depolarization stimulation was measured over time for 180 seconds. The channel opening action of the compound of the present invention was evaluated based on the change amount of the fluorescence intensity from the time before the depolarization stimulation to the time after the elapse of 180 seconds, and the concentration (ECrtg50) satisfying 50% of the fluorescence intensity change of a maximum reaction (in the treatment at 10 μM) of retigabine under the conditions of this experiment was calculated.

Data set [1] is described as follows: Stability in human liver microsomes. To be noted: human liver microsomes 0.5 mg/mL, NADPH, 5 μM, 37° C., 15 minutes. Format: in vitro ADME. The method, then:
A test compound (a 10 mM DMSO solution, 5 μL) was diluted with a 50% aqueous acetonitrile solution (195 μL), whereby a 0.25 mM solution was prepared.
To a reaction vessel preheated to 37° C., 0.5 mg/mL of human liver microsomes (XenoTech, LLC) and 245 JLL of a 0.1 M phosphate buffer solution (pH 7.4) containing NADPH co-factor (BD Biosciences) were added, followed by preincubation for 5 minutes, and thereafter, the above-prepared test compound solution (5 μL) was added thereto to start a reaction (final concentration: 5 μM). Immediately after the start, a 20 μL portion was collected and added to 180 μL of acetonitrile containing an internal standard substance (warfarin) to stop the reaction. A 20 μL portion of this solution was stirred with 180 μL of a 50% aqueous acetonitrile solution on a plate equipped with a deproteinization filter, followed by suction filtration, and the filtrate was used as a standard sample.
After the above-prepared reaction solution was incubated at 37° C. for 15 minutes, a 20 μL portion of the solution was added to 180 μL of cooled acetonitrile (containing warfarin serving as an internal standard substance) to stop the reaction. A 20 μL portion of this solution was stirred with 180 μL of a 50% aqueous acetonitrile solution on a plate equipped with a deproteinization filter, followed by suction filtration, and the filtrate was used as a reaction sample.
A residual ratio (%) was calculated as follows. 1 μL of the sample solution was injected into LC-MS/MS (Discovery Max, manufactured by Thermo Scientific, Inc.), and a value obtained by dividing the peak area ratio of the reaction sample (peak area of test compound/peak area of internal standard substance) by the peak area ratio of the standard sample was multiplied by 100.

The test system of data set [2] is bladder extracted from rat. The experiment in a line: Relaxing action on bladder extracted from rat (carbachol-induced contraction, Magnus tube). Conditions: rat bladder strip, carbachol 1 μM contraction; read-out: IC20 (percent change in tension -20%). As to the method:
Female Jcl:Wistar rats (CLEA Japan, Inc., body weight at use: 170 to 200 g) were anesthetized by intraperitoneal administration of about 40 mg/kg of pentobarbital (Somnopentyl, Schering Plough Animal Health Corporation), and killed by bloodletting. The bladder was extracted by abdominal incision and immediately thereafter immersed in ice-cooled Krebs buffer (Krebs Ringer bicarbonate buffer (Sigma-Aldrich Co. LLC) supplemented with sodium hydrogen carbonate (final concentration: 15 mM) and calcium chloride (final concentration: 2.5 mM)) saturated with a mixed gas (95% O2, 5% CO2).
The bladder body extracted from each rat was cut into an oblong strip shape (about 10×3 mm), whereby a specimen was prepared on ice. Immediately thereafter, the specimen was suspended in a Magnus tube filled with Krebs buffer (37° C.) bubbled with the mixed gas while applying a tension load of 500 mg thereto. Incidentally, the specimen was prepared within 24 hours after extracting the tissue.
After the elapse of one hour or more from the suspension of the specimen, 2.5 M KCl was added thereto to a final concentration of 100 mM, and the specimen in which a contraction reaction could be confirmed was used.
Carbachol (a contraction inducer) contraction was induced at a concentration of 1 μM. […] After the contraction reaction was stabilized, physiological saline or the compound of the present invention was added thereto to a final concentration of 1 nM, 10 nM, 100 nM, 1 μM, and […] in a cumulative manner from a low concentration.
The tension (mg) in the extracted bladder was used as an evaluation item. The tension was read using analysis software WAVE THERMO 1000. A percent change in tension after adding the compound of the present invention when the tension after adding the contraction inducer was taken as 0% was defined as a percent change in tension (%) and used as an evaluation index. The percent change in tension (%) is calculated according to the following formula. percent change in tension (%)={tension (mg) after adding compound of the present invention and the like−tension (mg) before adding contraction inducer}/{tension (mg) after adding contraction inducer−tension (mg) before adding contraction inducer}×100−100
The value at which the percent change in tension (%) was −20% was calculated as IC20 and used as an index of the relaxing action on the extracted bladder.

Data set [3] can be described thus: Solubility test (DMSO precipitation method, Japanese Pharmacopoeia dissolution test second solution). Format: physicochemical. To be noted: aqueous buffer, kinetic from dmso stock, JP dissolution test second solution pH 6.8, room temperature, quantification range 5 to 100 μM. As to the method: A calibration curve solution was prepared at 0.1, 0.4, and 2 μM by diluting a test substance (a 10 mM DMSO solution) with acetonitrile and adding acetonitrile containing an internal standard substance (candesartan).
A sample solution was prepared as follows. 5 μL of the compound of the present invention (a 10 mM DMSO solution) was added to 495 μL of the Japanese Pharmacopoeia dissolution test second solution (pH: 6.8), followed by stirring at room temperature for 5 hours. Then, the solution was transferred to a solubility filter plate and subjected to suction filtration. The filtrate (20 μL) was diluted with acetonitrile, followed by adding acetonitrile containing an internal standard substance (candesartan).
Each of the calibration curve and sample solutions (5 μL) was injected into LC-MS/MS (Discovery Max, manufactured by Thermo Scientific, Inc.) and subjected to quantification (quantification range: 5 to 100 μM). The solubility in the case where the value equal to or less than the quantification range was obtained was defined as <5 μM, and the solubility in the case where the value equal to or more than the quantification range was obtained was defined as […].

The target of another data set is T2, hERG IKr current (Homo sapiens, UniProt Q12809).
T2 construct: expressed in transfected cells; host or cells: HEK293 cells
The experiment in a line: Action on hERG IKr current (patch-clamp, HEK293 cells overexpressing hERG). Type of data set: cell-based. To be noted: maximum tail current, 10 minutes after application, read-out: 50% hERG channel inhibitory activity. As to the method: By using HEK293 cells overexpressing a human ether-a-go-go-related gene (hERG), the maximum tail current of the hERG IKr current induced by redepolarization pulse subsequent to depolarization pulse was measured by a patch-clamp method, and the percent change (suppression ratio) after 10 minutes from application of a test substance with respect to the maximum tail current before the application of the test substance was calculated (see, Biophysical Journal, vol. 74, pp. 230-241 (1998)).
Background: Block of hERG is tested as a sign of cardiac risk.

Values after ≈ are worked out from the molar mass of the structure shown.

A word on the IC20: it is the concentration needed for an effect of 20%. For orientation: solubility means the concentration that dissolves in the medium under given conditions. A high value points to much dissolved substance.

T2 sequence (Q12809 whole entry): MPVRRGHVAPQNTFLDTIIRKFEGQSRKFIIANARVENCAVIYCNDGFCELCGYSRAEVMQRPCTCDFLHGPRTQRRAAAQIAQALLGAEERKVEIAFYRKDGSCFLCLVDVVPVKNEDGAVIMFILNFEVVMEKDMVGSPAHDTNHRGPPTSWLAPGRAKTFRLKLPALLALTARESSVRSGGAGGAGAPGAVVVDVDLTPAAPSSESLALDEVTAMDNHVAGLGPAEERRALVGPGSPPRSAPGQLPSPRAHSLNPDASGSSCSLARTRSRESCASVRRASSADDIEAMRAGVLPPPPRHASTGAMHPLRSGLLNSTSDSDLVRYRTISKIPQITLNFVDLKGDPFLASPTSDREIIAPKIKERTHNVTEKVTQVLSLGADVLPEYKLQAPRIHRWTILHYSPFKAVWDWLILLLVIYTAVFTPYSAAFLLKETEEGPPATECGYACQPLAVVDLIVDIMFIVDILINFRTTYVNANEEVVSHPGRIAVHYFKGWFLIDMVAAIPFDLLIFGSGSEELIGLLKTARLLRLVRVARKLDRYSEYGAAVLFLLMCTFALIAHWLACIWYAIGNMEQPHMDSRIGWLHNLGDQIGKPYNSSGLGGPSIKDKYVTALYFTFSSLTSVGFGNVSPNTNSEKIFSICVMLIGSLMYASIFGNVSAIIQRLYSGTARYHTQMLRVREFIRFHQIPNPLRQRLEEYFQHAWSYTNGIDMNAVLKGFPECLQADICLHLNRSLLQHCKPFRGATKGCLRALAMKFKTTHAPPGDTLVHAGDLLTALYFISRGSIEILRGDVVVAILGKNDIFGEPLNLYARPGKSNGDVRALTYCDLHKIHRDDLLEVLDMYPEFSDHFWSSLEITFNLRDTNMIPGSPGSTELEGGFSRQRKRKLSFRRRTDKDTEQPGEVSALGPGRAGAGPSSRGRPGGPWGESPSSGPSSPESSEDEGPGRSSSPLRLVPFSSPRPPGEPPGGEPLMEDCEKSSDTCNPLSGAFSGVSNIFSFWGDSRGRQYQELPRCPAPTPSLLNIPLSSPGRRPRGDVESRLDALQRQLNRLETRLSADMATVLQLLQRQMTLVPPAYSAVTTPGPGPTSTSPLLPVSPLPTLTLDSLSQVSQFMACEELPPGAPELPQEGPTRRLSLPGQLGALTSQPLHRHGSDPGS

For the compound `CC1(O)c2cc(Cl)c(NC(=O)NCc3ccc(F)cc3)c(Cl)c2CC1(F)F` (centres unmarked) [Example 42, 1-(4,6-dichloro-2,2-difluoro-1-hydroxy-1-methyl-2,3-dihydro-1H-inden-5-yl)-3-(4-fluorobenzyl)urea], the EC50 at Human KCNQ2/3 channel was determined as 200 nM. Also, the Residual ratio in data set [1] is 90%. Moreover, in data set [2], the IC20 stood at 100 nM. Also, the solubility at 5 h in data set [3] came to 87 µM (≈ 36.5 µg/mL). In addition, the IC50 on hERG IKr current was more than 10000 nM.
